# Results: patent US20250144050A1, “AMINOTHIOL-CONJUGATES, COMPOSITIONS, AND METHODS OF USE THEREOF” (THE BURLINGTON HC RESEARCH GROUP, INC., priority 2021, published 2025)
# Read-outs that look alike come from different tables or passages of the source.
# Tests used:
# Solubility testing = format: physicochemical
# Protocol: (§1) The solubility of 4SP65 was tested in de-ionized water, PBS, DMSO, and RPMI or DMEM base medium with and without FBS. […] The difference in the starting weight of drug placed into solvent minus the weight of the residue after drying on a vacuum pump was considered to represent the amount of drug that went into solution. The amount of drug that was dissolved at a given time ranged from 40 to 61%, averaging 49.7±8.1% (SD). The weight of the 4SP65 in solution was then used for diluting the drug to concentrations of 200 or 400 μM in supplemented RPMI or DMEM/F12 medium for routine treatment of cells. The dried residue was not used in the in vitro drug efficacy studies. […] However, unintended topical entanglements between polymer chains of multi-arm PEG-thiol molecules without disulfide formation have been reported (Tang and Olsen, “Controlling Topological Entanglement in Engineered Protein Hydrogels with a Variety of Thiol Coupling Chemistries,” Front. Chem. 2:23 (2014), which is hereby incorporated by reference in its entirety). Aliquots of 4SP65 dissolved in FBS enriched medium has remained stable for >6 months while remnants of the original viscous polymer have maintained stability without any apparent loss of activity when stored for 60 months at −20° C.
# (§2) The boc deprotected aminothiol conjugated to m-PEG6-thiol was dried on a vacuum pump overnight to yield a viscous oil that on analysis gave rise to spectra corresponding to 1LP65 as a di-trifluroacetic acid salt at a MW of 672.87 Da (FIG. 15), or a MW of 483 once dissolved in solution. As such, 1LP65 is soluble 100% DMSO or aqueous solution. However, the bulk of the product was dissolved at 40 mM in DMSO and stored in aliquots at −80° C. for future use once by further dilution in DMSO and then final dilution in medium for treatment of normal human epithelium and human cancer cell lines at working solutions of 4 mM or 400 μM drug. 1LP65 has maintained stability for six months in frozen aliquots but should be stable in DMSO at −80° C. for two to three years based upon recommended storage conditions for cystamine dihydrochloride (Selleck Chemical product information), an analogous 225 Da compound with a disulfide bond and amine groups like 1LP65.
# MDA-MB-231 cells = assay: CyQUANT cell viability assay, 48-hour exposure; format: cell-based, human
# Protocol: After drug treatments, fluorescence readings from 96-well plates were obtained using the CyQUANT dye and compared to standard curves for each cell line to determine cell viability. […] Trypan blue exclusion was used to estimate cell numbers in a few pilot experiments and was thereafter applied to confirm cell death.
# A series of experiments was conducted to assess the relative efficacy of 4SP65, 1LP65, and amifostine as single agents in the same human cancer cell lines. First, the effectiveness of 4SP65 was tested against 15 cancer cell lines derived from seven tissues. […] The effectiveness of 0 to ≤500 μM amifostine was tested in sets of cancer cell lines reported to have either medium, high, or no expression of alkaline phosphatase.
# Trans. R Soc. Lond. […] Using cell numbers based on fluorescence measurements and standard curves [time zero, (Tz), control growth, (C), and test growth in the presence of drug at five or more concentration levels (Ti)], the percentage growth was calculated at each drug concentration level. The percentage of growth inhibition was calculated as follows:
# The LC50/99 was calculated using Equation 2=−50 and Eq. 2=−99, respectively. […] For NHMECs, the relationships between drug exposure levels and fluorescence units were used to define dose-response metrics. The selectivity index (SI) values for individual drug treatments were calculated as IC50 levels in NHMECs divided by the IC50 values in cancer cell lines.
# [1] = tested on: normal human mammary epithelial cells (NHMECs); assay: Growth of NHMEC strains after 48-hour exposure; format: cell-based; conditions: for average effect per unit dose (% growth÷exposure concentration) / average effect per unit dose: NHMECs; for growth relative to control cells: 48-hour; for cell growth as % of control cell values: highest drug level 500 μM
# Source text: Normal human mammary epithelial cell (NHMEC) strains used to assess potential cytotoxicity of 4SP65/1LP65 were established from reduction mammoplasty tissue from a healthy donor (#M99005 or ‘Strain-1’) (Keshava et al., “Induction of CYP1A1 and CYP1B1 and Formation of Carcinogen-DNA Adducts in Normal Human Mammary Epithelial Cells Treated with Benzo[a]pyrene,” Cancer Lett. 221 (2): 213-24 (2005), which is hereby incorporated by reference in its entirety) or purchased from ATCC (Manassas, VA, USA; batch #70043304 or ‘Strain-2’) or Cell Applications (San Diego, CA, USA; lot #1669 or ‘Strain-3’). Human cancer cell lines including HCC38 (Cat #CRL2314™), MDA-MB-231 (Cat #HTB-26™), A549/ATCC (Cat #CL-185™), National Cancer Institute (NCI)-H460 (Cat #HTB177™), NCI-H1437 (Cat #CRL-5872™), NCI-H1975 (Cat #CRL-5908™), DU145 (Cat #HTB-81™), LNCaP (Cat #CRL-1740™), PC3 (Cat #CRL-1435™), PANC1 (Cat #CRL-1469™), SKOV3 (Cat #HTB-75™), and HL60 (Cat #CCL-240™), which were free of mycoplasma, were purchased from ATCC. HMESO1 (CLS Cell Lines Service GmbH, Cat #BHC11100791), PPMMill, and TOV21G cells (ATTC Cat #CRL-11730), obtained from Dr. Brian Cunniff, were verified to be Mycoplasma negative using the LookOutR Mycoplasma PCR Detection Kit (Sigma-Aldrich, Cat #MP0035) and to match previously annotated DNA fingerprints by the Vermont Integrative Genomics Resource DNA Analysis Facility.
# To assess the effects of 4SP65 on the growth of normal epithelium, experiments were performed using NHMEC strains from three donors (Keshava et al., “Induction of CYP1A1 and CYP1B1 and Formation of Carcinogen-DNA Adducts in Normal Human Mammary Epithelial Cells Treated with Benzo[a]pyrene,” Cancer Lett. 221 (2): 213-24 (2005), which is hereby incorporated by reference in its entirety). Strain-1 NHMECs were plated at 5,000 cells/well in 24-well dishes and allowed to reach 50% confluence before treatment with 0-300 μM 4SP65 for 48 hours. Cell viability was determined using a hemocytometer and trypan blue exclusion assay. Two other NHMEC strains, exposed to 0-150 μM 4SP65 or 0-500 μM 1LP65, were handled in the same fashion except that viability of cells in 96-well plates was determined using CyQUANT dye.
# Storage stability = format: physicochemical
# Protocol: as §1
# as §2, with “1LP65 has maintained stability for six months in frozen aliquots but should be stable in DMSO at −80° C. for two to three years based upon recommended storage conditions for cystamine dihydrochloride (Selleck Chemical product information), an analogous 225 Da compound with a disulfide bond and amine groups like 1LP65.” left out
molecule,measurement,setting,value
4-star PEG-S-S-WR1065 [4SP65],highest level that could be tested based upon maximum solubility in aqueous medium,Solubility testing; aqueous medium,150 µM
same,"amount of drug that was dissolved, averaging (SD)",Solubility testing; aqueous solvents/medium,49.7±8.1%
same,solubility,"Solubility testing; de-ionized water, PBS, DMSO, RPMI or DMEM base medium with and without FBS",partially soluble in all media evaluated except DMSO
same,concentration above which a hydrogel forms,Solubility testing; in medium,above 300 micromolar
same,selectivity index,MDA-MB-231 cells; IC50 of 76 in most sensitive NHMEC strain / IC50 in MDA-MB-231,> 16
same,average effect per unit dose (% growth÷exposure concentration),[1]; 9 μM,8.7
same,average effect per unit dose (% growth÷exposure concentration),[1]; 30 μM,1.70
same,average effect per unit dose (% growth÷exposure concentration),[1]; 90 μM,0.23
same,average effect per unit dose (% growth÷exposure concentration),[1]; 150 μM,0.058
same,growth compared to sham-exposed control cells,"[1]; Strain-1, 5 μM, 48 hours",336%
same,growth compared to sham-exposed control cells,"[1]; Strain-1, 15 μM, 48 hours",286%
same,growth as % of control cell growth,"[1]; Strain-1, 50 μM, 48 hours",68%
same,growth pattern,"[1]; Strain-1, 150 μM, 48 hours",re-established a predominant pattern of growth enhancement
same,IC50,[1]; Strain-1 and Strain-2 NHMECs,could not be calculated or predicted
same,GI50,[1]; Strain-1 and Strain-2 of NHMECs,could not be calculated or predicted
same,growth relative to control cells,"[1]; Strain-2 and Strain-3, 3 μM",162%±7%
same,growth relative to control cells,"[1]; Strain-2 and Strain-3, 9 μM",78%±12%
same,growth relative to control cells,"[1]; Strain-2 and Strain-3, 30 μM",52%±8%
same,growth relative to control cells,"[1]; Strain-2 and Strain-3, 50 μM (so in the source)",21%±4%
same,growth relative to control cells,"[1]; Strain-2 and Strain-3, 150 μM",8.7%±2%
same,IC50,"[1]; Strain-3 cells, 48 hours, read-out: IC50",76 ± 14 µM
same,GI50,"[1]; strain 3 of NHMECs, read-out: GI50",41.4 ± 6.2 µM
same,time remained stable,Storage stability; dissolved in FBS enriched medium,> 6 months
same,time stability maintained without apparent loss of activity,Storage stability; original viscous polymer stored at −20° C.,60 months
"COCCOCCOCCOCCOCCOCCSSCCNCCCN [1LP65, m-PEG6-S-S-WR1065]",solubility,Solubility testing; 100% DMSO or aqueous solution,soluble
same,GI50,"MDA-MB-231 cells; Homo sapiens, MDA-MB-231 cells, 48 hours",41.8 µM
same,cytotoxicity in NHMECs,[1]; 500 μM,not cytotoxic
same,IC50,"[1]; Homo sapiens, Epithelial cell, 48 h, Strain-2 cells, 48 hours, read-out: IC50",> 500 µM
same,IC50,"[1]; Homo sapiens, Epithelial cell, 48 h, Strain-3 cells, 48 hours, read-out: IC50",210 µM
same,IC50,"[1]; Homo sapiens, Epithelial cell, Strain-2 and Strain-3, read-out: IC50, averaging over strains",> 355 µM
same,average effect per unit dose (% growth÷exposure concentration),[1]; 90 μM,2.9
same,average effect per unit dose (% growth÷exposure concentration),[1]; 150 μM,0.31
same,average effect per unit dose,[1]; 300 μM,0.06
same,average effect per unit dose,[1]; 500 μM,0.03
same,cell growth as % of control cell values,"[1]; Strain-2, 48 hours",19.5%
same,cell growth as % of control cell values,"[1]; Strain-3, 48 hours",12.5%
same,time stability maintained,"Storage stability; frozen aliquots, 40 mM in DMSO at −80° C.",six
